Here are results for 1 compound from publication PMC4749168, “Potentiation of ΔF508- and G551D-CFTR-Mediated Cl^- Current by Novel Hydroxypyrazolines” (PLoS ONE, 2016).

This assay deals with T1, G551D-CFTR (Homo sapiens, UniProt P13569, G551D).
T1 construct: expressed in transfected cells; host or cells: Fisher rat thyroid (FRT) cells; provided by Dr. Alan Verkman
In words: Apical membrane current (Ussing chamber) in FRT cells expressing G551D-CFTR. The format is cell-based. The procedure: Snapwell inserts containing CFTR-expressing FRT and primary culture of human nasal epithelial cells were mounted in Ussing chambers (Physiologic Instruments, San Diego, CA). […] For FRT cells, the apical bath was filled with a half-Cl^- solution and the basolateral bath was filled with HCO3^—buffered solution, and the basolateral membrane was permeabilized with 250 μg/mL amphotericin B. For primary cultures of human nasal epithelial cells, symmetrical HCO3^—buffered solutions were used and ENaC was inhibited by pre-treatment with amiloride (100 μM). […] Apical membrane current and short-circuit current were measured with an EVC4000 Multi-Channel V/I Clamp (World Precision Instruments, Sarasota, FL) and recorded using PowerLab 4/35 (AD Instruments, Castle Hill, Australia). Data were collected and analyzed with ADInstruments acquisition software Labchart Pro 7 software. The sampling rate was 4 Hz.

T1 sequence (P13569 whole entry G551D): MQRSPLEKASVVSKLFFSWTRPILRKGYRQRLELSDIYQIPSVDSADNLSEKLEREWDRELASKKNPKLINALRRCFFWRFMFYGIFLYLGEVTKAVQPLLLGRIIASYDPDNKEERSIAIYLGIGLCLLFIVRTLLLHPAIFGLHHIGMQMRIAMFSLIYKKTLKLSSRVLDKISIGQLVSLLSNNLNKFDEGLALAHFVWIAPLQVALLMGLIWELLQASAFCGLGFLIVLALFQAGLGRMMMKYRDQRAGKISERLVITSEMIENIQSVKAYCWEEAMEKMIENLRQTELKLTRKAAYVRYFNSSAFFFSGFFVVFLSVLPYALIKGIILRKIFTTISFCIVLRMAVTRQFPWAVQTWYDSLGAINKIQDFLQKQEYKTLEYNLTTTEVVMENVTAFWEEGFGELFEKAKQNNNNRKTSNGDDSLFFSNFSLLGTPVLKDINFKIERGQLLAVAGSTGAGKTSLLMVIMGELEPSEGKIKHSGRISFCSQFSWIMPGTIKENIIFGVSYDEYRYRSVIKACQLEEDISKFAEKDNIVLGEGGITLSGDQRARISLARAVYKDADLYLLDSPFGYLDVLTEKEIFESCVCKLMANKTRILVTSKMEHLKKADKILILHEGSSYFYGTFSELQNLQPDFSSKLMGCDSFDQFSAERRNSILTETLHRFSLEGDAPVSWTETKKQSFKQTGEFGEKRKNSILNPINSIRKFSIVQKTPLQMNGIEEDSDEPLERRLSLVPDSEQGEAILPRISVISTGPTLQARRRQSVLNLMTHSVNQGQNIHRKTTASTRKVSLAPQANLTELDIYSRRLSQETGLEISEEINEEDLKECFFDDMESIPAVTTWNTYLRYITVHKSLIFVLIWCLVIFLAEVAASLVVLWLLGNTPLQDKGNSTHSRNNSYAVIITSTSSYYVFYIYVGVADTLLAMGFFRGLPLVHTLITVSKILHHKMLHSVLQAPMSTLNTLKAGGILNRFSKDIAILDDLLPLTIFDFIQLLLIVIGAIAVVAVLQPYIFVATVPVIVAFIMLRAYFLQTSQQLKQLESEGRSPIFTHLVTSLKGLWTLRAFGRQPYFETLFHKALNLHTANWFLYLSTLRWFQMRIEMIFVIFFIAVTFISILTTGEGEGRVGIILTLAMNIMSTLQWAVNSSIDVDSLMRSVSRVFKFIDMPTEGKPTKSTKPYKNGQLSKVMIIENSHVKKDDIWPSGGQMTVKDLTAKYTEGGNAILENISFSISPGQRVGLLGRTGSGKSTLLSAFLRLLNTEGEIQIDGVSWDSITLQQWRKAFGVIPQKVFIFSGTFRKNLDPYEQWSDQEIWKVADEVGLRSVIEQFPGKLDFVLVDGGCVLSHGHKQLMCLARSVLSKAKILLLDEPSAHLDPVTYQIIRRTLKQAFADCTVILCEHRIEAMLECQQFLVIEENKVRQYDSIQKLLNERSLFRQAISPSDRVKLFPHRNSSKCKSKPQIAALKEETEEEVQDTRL

As to `COc1ccc(C2CC(c3ccc(O)cc3O)=NN2c2ccc(S(N)(=O)=O)cc2)c(OC)c1` (stereo not shown) [Compound 7q, 4-[3-(2,4-dihydroxyphenyl)-5-(2,4-dimethoxyphenyl)-4,5-dihydro-1H-pyrazol-1-yl] benzenesulfonamide], the “Potentiation of G551D-CFTR Cl- current compared with VX-770” value (20 μM forskolin, 30 μM CP7q vs 10 μM VX-770) is reported as “comparable to VX-770”. Also, the “Potentiation of G551D-CFTR Cl- current relative to genistein” value (20 μM forskolin, 30 μM CP7q vs 50 μM genistein) is 1.9 times. For the setting “20 μM forskolin, 50 μM genistein, 10 μM VX-770, CP7q”, the “Potentiation of G551D-CFTR Cl- current” value is “significantly potentiated”. Moreover, the “Maximal potentiation of G551D-CFTR chloride conductance relative to genistein” value (higher than genistein) is on record as 1.9 fold.
